Data reported in ChEMBL document CHEMBL3885861, “Open TG-GATES”.

Species: Rattus norvegicus
Assay: Open TG-GATES - Regimen: Single
Assay type: toxicity, organism-based, Sprague-Dawley
Design: regimen Single, gender Male, age 6 weeks
Settings: in vivo, po, 10 mg/kg, route gavage, dose level Low; for APTT / Bas / Eos / Fbg / Hb / Ht / Lym / MCH / MCHC / MCV / Mono / Neu / PT / Plat / RBC / Ret / WBC: tissue Blood; for KIDNEY_L / KIDNEY_R / KIDNEY_TOTAL: tissue Kidney; for LIVER: tissue Liver; for A/G / ALP / ALT / AST / BUN / CRE / Ca / Cl / DBIL / GLC / IP / K / LDH / Na / PL / RALB / TBIL / TC / TG / TP / gamma-GTP: tissue Plasma

Q: Which results are given for `CCCc1cc(=O)[nH]c(=S)[nH]1` [PROPYLTHIOURACIL]?
A: TERMINAL_BW (3 h): 181.7 g; APTT (3 h): 15.5 s; Bas (3 h): 0%; Eos (3 h): 0.6%; Fbg (3 h): 202.8 mg/dL; Hb (3 h): 13.1 g/dL; Ht (3 h): 39.5%; Lym (3 h): 78.6%; MCH (3 h): 22.3 pg; MCHC (3 h): 33.3%; MCV (3 h): 66.9 fL; Mono (3 h): 8.6%; Neu (3 h): 12.4%; PT (3 h): 12.9 s; Plat (3 h): 102.8 x10_4/uL; RBC (3 h): 590.2 x10_4/ul; Ret (3 h): 10.1%; WBC (3 h): 92.2 x10_2/uL; KIDNEY_L (3 h): 0.9 g; KIDNEY_R (3 h): 0.9 g; KIDNEY_TOTAL (3 h): 1.7 g; LIVER (3 h): 8.4 g; A/G (3 h): 2; ALP (3 h): 982.6 IU/L; ALT (3 h): 41.6 IU/L; AST (3 h): 72.2 IU/L; BUN (3 h): 12 mg/dL; CRE (3 h): 0.4 mg/dL; Ca (3 h): 11.1 mg/dL; Cl (3 h): 105 meq/L; DBIL (3 h): 0.042 mg/dL; GLC (3 h): 191.4 mg/dL; IP (3 h): 10.3 mg/dL; K (3 h): 4.8 meq/L; LDH (3 h): 92 IU/L; Na (3 h): 138.6 meq/L; PL (3 h): 122.2 mg/dL; RALB (3 h): 3.6 g/dL; TBIL (3 h): 0.3 mg/dL; TC (3 h): 69.2 mg/dL; TG (3 h): 26.6 mg/dL; TP (3 h): 5.5 g/dL; gamma-GTP (3 h): 1.4 IU/L; TERMINAL_BW (6 h): 174.6 g; APTT (6 h): 15.6 s; Bas (6 h): 0%; Eos (6 h): 0.8%; Fbg (6 h): 208.2 mg/dL; Hb (6 h): 13.7 g/dL; Ht (6 h): 41.1%; Lym (6 h): 78.4%; MCH (6 h): 22 pg; MCHC (6 h): 33.3%; MCV (6 h): 66 fL; Mono (6 h): 7.4%; Neu (6 h): 13.4%; PT (6 h): 12.8 s; Plat (6 h): 100.8 x10_4/uL; RBC (6 h): 622.8 x10_4/ul; Ret (6 h): 8.9%; WBC (6 h): 89.5 x10_2/uL; KIDNEY_L (6 h): 0.8 g; KIDNEY_R (6 h): 0.8 g; KIDNEY_TOTAL (6 h): 1.7 g; LIVER (6 h): 7.7 g; A/G (6 h): 2; ALP (6 h): 969.6 IU/L; ALT (6 h): 33 IU/L; AST (6 h): 64.6 IU/L; BUN (6 h): 12.4 mg/dL; CRE (6 h): 0.5 mg/dL; Ca (6 h): 10.8 mg/dL; Cl (6 h): 105.4 meq/L; DBIL (6 h): 0.05 mg/dL; GLC (6 h): 181.8 mg/dL; IP (6 h): 10.6 mg/dL; K (6 h): 5.2 meq/L; LDH (6 h): 68 IU/L; Na (6 h): 138.4 meq/L; PL (6 h): 125.8 mg/dL; RALB (6 h): 3.6 g/dL; TBIL (6 h): 0.4 mg/dL; TC (6 h): 68.4 mg/dL; TG (6 h): 34.6 mg/dL; TP (6 h): 5.4 g/dL; gamma-GTP (6 h): 1.4 IU/L; TERMINAL_BW (9 h): 177.5 g; APTT (9 h): 16 s; Bas (9 h): 0%; Eos (9 h): 1.4%; Fbg (9 h): 214.2 mg/dL; Hb (9 h): 13.1 g/dL; Ht (9 h): 39.3%; Lym (9 h): 67%; MCH (9 h): 22 pg; MCHC (9 h): 33.3%; MCV (9 h): 66 fL; Mono (9 h): 11.8%; Neu (9 h): 19.6%; PT (9 h): 12.9 s; Plat (9 h): 109.3 x10_4/uL; RBC (9 h): 596 x10_4/ul; Ret (9 h): 10.2%; WBC (9 h): 70.1 x10_2/uL; KIDNEY_L (9 h): 0.8 g; KIDNEY_R (9 h): 0.9 g; KIDNEY_TOTAL (9 h): 1.7 g; LIVER (9 h): 7.7 g; A/G (9 h): 2.1; ALP (9 h): 791.6 IU/L; ALT (9 h): 32 IU/L; AST (9 h): 59.2 IU/L; BUN (9 h): 12.8 mg/dL; CRE (9 h): 0.4 mg/dL; Ca (9 h): 10.7 mg/dL; Cl (9 h): 106.4 meq/L; DBIL (9 h): 0.01 mg/dL; GLC (9 h): 192.6 mg/dL; IP (9 h): 10.7 mg/dL; K (9 h): 5.3 meq/L; LDH (9 h): 84.2 IU/L; Na (9 h): 138.2 meq/L; PL (9 h): 135 mg/dL; RALB (9 h): 3.6 g/dL; TBIL (9 h): 0.4 mg/dL; TC (9 h): 73.4 mg/dL; TG (9 h): 38.8 mg/dL; TP (9 h): 5.4 g/dL; gamma-GTP (9 h): 1.4 IU/L; TERMINAL_BW (24 h): 193.7 g; APTT (24 h): 16.3 s; Bas (24 h): 0%; Eos (24 h): 1%; Fbg (24 h): 209.4 mg/dL; Hb (24 h): 13 g/dL; Ht (24 h): 39.1%; Lym (24 h): 77.2%; MCH (24 h): 21.7 pg; MCHC (24 h): 33.1%; MCV (24 h): 65.4 fL; Mono (24 h): 7.2%; Neu (24 h): 14.8%; PT (24 h): 12.3 s; Plat (24 h): 102.3 x10_4/uL; RBC (24 h): 598.4 x10_4/ul; Ret (24 h): 9.7%; WBC (24 h): 90 x10_2/uL; KIDNEY_L (24 h): 0.9 g; KIDNEY_R (24 h): 0.9 g; KIDNEY_TOTAL (24 h): 1.8 g; LIVER (24 h): 9.5 g; A/G (24 h): 2.1; ALP (24 h): 908.8 IU/L; ALT (24 h): 39.8 IU/L; AST (24 h): 65.6 IU/L; BUN (24 h): 18.8 mg/dL; CRE (24 h): 0.5 mg/dL; Ca (24 h): 11 mg/dL; Cl (24 h): 106.6 meq/L; DBIL (24 h): 0.008 mg/dL; GLC (24 h): 182.6 mg/dL; IP (24 h): 7.3 mg/dL; K (24 h): 5.2 meq/L; LDH (24 h): 85.8 IU/L; Na (24 h): 139.4 meq/L; PL (24 h): 166.4 mg/dL; RALB (24 h): 3.8 g/dL; TBIL (24 h): 0.3 mg/dL; TC (24 h): 94.8 mg/dL; TG (24 h): 97.6 mg/dL; TP (24 h): 5.6 g/dL; gamma-GTP (24 h): 2.8 IU/L
